From patent publication US20260176320A1, “MODULATORS OF G-PROTEIN COUPLED RECEPTORS” (priority 2018, published 2026)
Read-outs that look alike come from different tables or passages of the source.

What was measured:
GLP-1R = GLP-1R (Homo sapiens, UniProt P43220); test: HitHunter cAMP assay (GLP-1R); assay type: cell-based; details: cAMP; for Emax: read-out: (Emax) GLP-1R
How it was run: (§1)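 Agonist stimulation lasts 30 min at room temperature on 10,000 cells per well, with phosphodiesterase blocked by 625 μM IBMX. Accumulated cAMP is quantified by competitive antibody luminescence after overnight development.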

GIP-R = molecular target: T1, GIP-R (Homo sapiens, UniProt P48546); test: HitHunter cAMP assay (GIP-R); assay type: cell-based; details: cAMP; for Emax: read-out: (Emax) GIP-R
T1 sequence (P48546 22-466): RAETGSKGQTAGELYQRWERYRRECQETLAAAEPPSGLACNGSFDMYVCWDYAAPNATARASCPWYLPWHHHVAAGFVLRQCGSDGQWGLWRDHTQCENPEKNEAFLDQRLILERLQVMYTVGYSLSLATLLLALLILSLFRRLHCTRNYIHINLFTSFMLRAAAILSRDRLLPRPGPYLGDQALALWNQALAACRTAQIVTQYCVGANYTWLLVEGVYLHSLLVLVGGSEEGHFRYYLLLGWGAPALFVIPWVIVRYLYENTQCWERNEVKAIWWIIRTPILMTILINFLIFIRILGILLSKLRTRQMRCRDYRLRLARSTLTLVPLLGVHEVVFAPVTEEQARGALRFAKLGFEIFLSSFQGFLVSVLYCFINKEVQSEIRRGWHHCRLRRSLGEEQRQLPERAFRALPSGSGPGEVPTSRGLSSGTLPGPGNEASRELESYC
How it was run: as §1

[1] = Table 3A, read-out: EC50 GLP-1R/nM
[2] = Table 3A, read-out: EC50 GIP-R/nM

GLP-1R, sequence (P43220 24-463): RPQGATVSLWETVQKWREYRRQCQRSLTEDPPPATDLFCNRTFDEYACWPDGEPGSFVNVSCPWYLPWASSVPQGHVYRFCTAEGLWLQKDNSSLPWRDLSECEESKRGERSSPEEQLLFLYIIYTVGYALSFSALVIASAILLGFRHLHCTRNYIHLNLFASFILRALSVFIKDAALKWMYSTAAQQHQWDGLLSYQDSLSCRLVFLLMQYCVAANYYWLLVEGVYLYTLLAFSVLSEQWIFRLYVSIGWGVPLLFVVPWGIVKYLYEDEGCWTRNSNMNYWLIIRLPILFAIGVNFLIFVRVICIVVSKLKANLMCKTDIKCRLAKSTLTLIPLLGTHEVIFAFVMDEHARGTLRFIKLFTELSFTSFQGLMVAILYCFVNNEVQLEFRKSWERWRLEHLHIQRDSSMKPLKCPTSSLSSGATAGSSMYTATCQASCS

Row | SMILES | EC50 (GLP-1R; [1]) [nM] | Emax (GIP-R; Table 3A) [%] | EC50 (GIP-R; [2]) [nM] | Emax (GLP-1R; Table 3) [%] | Emax (GLP-1R; Table 3A) [%] | Emax (GIP-R; Table 3) [%] | EC50 (GLP-1R; EC50 GLP-1R/nM, Table 3) [nM] | EC50 (GLP-1R; EC50 GLP-1R/nM, Table 3A) [nM] | EC50 (GIP-R; EC50 GIP-R/nM, Table 3) [nM] | EC50 (GIP-R; EC50 GIP-R/nM, Table 3A) [nM] | EC50 (GLP-1R; Table 3, read-out: EC50 GLP-1R/nM) [nM] | EC50 (GIP-R; Table 3, read-out: EC50 GIP-R/nM) [nM] | Emax at 1 µM (GIP-R; read-out: (Emax) GIP-R at 1 μM, Table 3, at 1 μM) [%]
1 | CCCCCCCCCCCCCCCC(=O)N[C@@H](CCC(=O)NCCCC[C@H](NC(=O)[C@H](CO)NC(=O)[C@@H]1CCCN1C(=O)[C@@H]1CCCN1C(=O)[C@@H]1CCCN1C(=O)[C@H](C)NC(=O)CNC(=O)[C@H](CO)NC(=O)[C@H](CO)NC(=O)[C@@H]1CCCN1C(=O)CNC(=O)CNC(=O)[C@H](C)NC(=O)[C@H](CC(C)C)NC(=O)[C@H](CC(C)C)NC(=O)[C@H](Cc1c[nH]c2ccccc12)NC(=O)[C@H](CC(N)=O)NC(=O)[C@@H](NC(=O)[C@H](Cc1ccccc1)NC(=O)[C@H](CCC(=O)O)NC(=O)C(C)(C)NC(=O)[C@H](C)NC(=O)[C@H](C)NC(=O)[C@H](CCC(N)=O)NC(=O)[C@H](CCCCN)NC(=O)[C@H](CC(=O)O)NC(=O)[C@H](CC(C)C)NC(=O)[C@H](Cc1ccc(O)cc1)NC(=O)[C@@H](NC(=O)[C@H](CO)NC(=O)[C@H](Cc1ccc(O)cc1)NC(=O)[C@H](CC(=O)O)NC(=O)[C@H](CO)NC(=O)[C@@H](NC(=O)[C@H](Cc1ccccc1)NC(=O)[C@@H](NC(=O)CNC(=O)[C@H](CCC(=O)O)NC(=O)C(C)(C)C(=O)NCCN1CCOCC1=O)[C@@H](C)O)[C@@H](C)O)[C@@H](C)CC)C(C)C)C(N)=O)C(=O)O [Compound 257] | < 0.1 | 40 | 10 to 100 | – | – | – | – | – | – | – | – | – | –
2 | CCCCCCCCCCCCCCCC(=O)N[C@@H](CCC(=O)NCCCC[C@H](NC(=O)[C@H](CO)NC(=O)[C@@H]1CCCN1C(=O)[C@@H]1CCCN1C(=O)[C@@H]1CCCN1C(=O)[C@H](C)NC(=O)CNC(=O)[C@H](CO)NC(=O)[C@H](CO)NC(=O)[C@@H]1CCCN1C(=O)CNC(=O)CNC(=O)[C@H](C)NC(=O)[C@H](CC(C)C)NC(=O)[C@H](CC(C)C)NC(=O)[C@H](Cc1c[nH]c2ccccc12)NC(=O)[C@H](CC(N)=O)NC(=O)[C@@H](NC(=O)[C@H](Cc1ccccc1)NC(=O)[C@H](CCC(=O)O)NC(=O)C(C)(C)NC(=O)[C@H](C)NC(=O)[C@H](C)NC(=O)[C@H](CCC(N)=O)NC(=O)[C@H](CCCCN)NC(=O)[C@H](CC(=O)O)NC(=O)[C@H](CC(C)C)NC(=O)[C@H](Cc1ccc(O)cc1)NC(=O)[C@@H](NC(=O)[C@H](CO)NC(=O)[C@H](Cc1ccc(O)cc1)NC(=O)[C@H](CC(=O)O)NC(=O)[C@H](CO)NC(=O)[C@@H](NC(=O)[C@H](Cc1ccccc1)NC(=O)[C@@H](NC(=O)CNC(=O)[C@H](CCC(=O)O)NC(=O)CSCC(=O)NCCN1C(=O)C[C@@H](CC)C1=O)[C@@H](C)O)[C@@H](C)O)[C@@H](C)CC)C(C)C)C(N)=O)C(=O)O (single isomer, unassigned) [Compound 61] | – | 56 | – | 96 | 96 | 56 | – | – | – | – | – | – | –
3 | CC[C@H](C)[C@H](NC(=O)[C@H](CO)NC(=O)[C@H](Cc1ccc(O)cc1)NC(=O)[C@H](CC(=O)O)NC(=O)[C@H](CO)NC(=O)[C@@H](NC(=O)[C@H](Cc1ccccc1)NC(=O)[C@@H](NC(=O)CNC(=O)[C@H](CCC(=O)O)NC(=O)CSCC(=O)NCCN1C(=O)[C@H]2C[C@H]2C1=O)[C@@H](C)O)[C@@H](C)O)C(=O)N[C@@H](Cc1ccc(O)cc1)C(=O)N[C@@H](CC(C)C)C(=O)N[C@@H](CC(=O)O)C(=O)N[C@@H](CCCCN)C(=O)N[C@@H](CCC(N)=O)C(=O)N[C@@H](C)C(=O)N[C@@H](C)C(=O)NC(C)(C)C(=O)N[C@@H](CCC(=O)O)C(=O)N[C@@H](Cc1ccccc1)C(=O)N[C@H](C(=O)N[C@@H](CC(N)=O)C(=O)N[C@@H](Cc1c[nH]c2ccccc12)C(=O)N[C@@H](CC(C)C)C(=O)N[C@@H](CC(C)C)C(=O)N[C@@H](C)C(=O)NCC(=O)NCC(=O)N1CCC[C@H]1C(=O)N[C@@H](CO)C(=O)N[C@@H](CO)C(=O)NCC(=O)N[C@@H](C)C(=O)N1CCC[C@H]1C(=O)N1CCC[C@H]1C(=O)N1CCC[C@H]1C(=O)N[C@@H](CO)C(=O)N[C@@H](CCCCN)C(N)=O)C(C)C [Compound 109] | – | 36 | – | 101 | 101 | 36 | 1 to 10 | 1 to 10 | 10 to 100 | 10 to 100 | – | – | –
4 | CCCCCCCCCCCCCCCC(=O)N[C@@H](CCC(=O)NCCCC[C@H](NC(=O)[C@H](CO)NC(=O)[C@@H]1CCCN1C(=O)[C@@H]1CCCN1C(=O)[C@@H]1CCCN1C(=O)[C@H](C)NC(=O)CNC(=O)[C@H](CO)NC(=O)[C@H](CO)NC(=O)[C@@H]1CCCN1C(=O)CNC(=O)CNC(=O)[C@H](C)NC(=O)[C@H](CC(C)C)NC(=O)[C@H](CC(C)C)NC(=O)[C@H](Cc1c[nH]c2ccccc12)NC(=O)[C@H](CC(N)=O)NC(=O)[C@@H](NC(=O)[C@H](Cc1ccccc1)NC(=O)[C@H](CCC(=O)O)NC(=O)C(C)(C)NC(=O)[C@H](C)NC(=O)[C@H](C)NC(=O)[C@H](CCC(N)=O)NC(=O)[C@H](CCCCN)NC(=O)[C@H](CC(=O)O)NC(=O)[C@H](CC(C)C)NC(=O)[C@H](Cc1ccc(O)cc1)NC(=O)[C@@H](NC(=O)[C@H](CO)NC(=O)[C@H](Cc1ccc(O)cc1)NC(=O)[C@H](CC(=O)O)NC(=O)[C@H](CO)NC(=O)[C@@H](NC(=O)[C@H](Cc1ccccc1)NC(=O)[C@@H](NC(=O)CNC(=O)[C@H](CCC(=O)O)NC(=O)CSCC(=O)NCCN1C(=O)CSC1=O)[C@@H](C)O)[C@@H](C)O)[C@@H](C)CC)C(C)C)C(=O)O)C(=O)O [Compound 199] | 0.1 to 1 | 78 | 1 to 10 | – | 92 | – | – | – | – | – | – | – | –
5 | CC[C@H](C)[C@H](NC(=O)[C@H](CO)NC(=O)[C@H](Cc1ccc(O)cc1)NC(=O)[C@H](CC(=O)O)NC(=O)[C@H](CO)NC(=O)[C@@H](NC(=O)[C@H](Cc1ccccc1)NC(=O)[C@@H](NC(=O)CNC(=O)[C@H](CCC(=O)O)NC(=O)CC(C)CC(=O)NCCN1C(=O)CSC1=O)[C@@H](C)O)[C@@H](C)O)C(=O)N[C@@H](Cc1ccc(O)cc1)C(=O)N[C@@H](CC(C)C)C(=O)N[C@@H](CC(=O)O)C(=O)N[C@@H](CCCCN)C(=O)N[C@@H](CCC(N)=O)C(=O)N[C@@H](C)C(=O)N[C@@H](C)C(=O)NC(C)(C)C(=O)N[C@@H](CCC(=O)O)C(=O)N[C@@H](Cc1ccccc1)C(=O)N[C@H](C(=O)N[C@@H](CC(N)=O)C(=O)N[C@@H](Cc1c[nH]c2ccccc12)C(=O)N[C@@H](CC(C)C)C(=O)N[C@@H](CC(C)C)C(=O)N[C@@H](C)C(=O)NCC(=O)NCC(=O)N1CCC[C@H]1C(=O)N[C@@H](CO)C(=O)N[C@@H](CO)C(=O)NCC(=O)N[C@@H](C)C(=O)N1CCC[C@H]1C(=O)N1CCC[C@H]1C(=O)N1CCC[C@H]1C(=O)N[C@@H](CO)C(=O)N[C@@H](CCCCN)C(N)=O)C(C)C (mixture of isomers) [Compound 120] | 1 to 10 | – | > 1000 | 91 | 91 | – | – | – | – | – | 1 to 10 | > 1000 | 6
